Where a SMILES comes first, the peptide text is derived from it.
Columns and labels:
[1] = system: serum C-reactive protein (CRP); assay: Hangover study, serum CRP, alcohol 1 day; type: in vivo, Wistar albino rats; conditions: 1 Day alcohol
Description: (§1) For hangover, 1 day immunology parameter were considered and for CNS, 5 days immunology parameter were considered.

Interferon gamma (IFN-γ) [2] = assay: Hangover study, serum IFN-gamma, alcohol 1 day; type: in vivo, Wistar albino rats; design: concentration or dose not given beside the values; conditions: 1 Day alcohol
Description: (§2) Distilled ethanol was obtained from Bengal Chemicals, West Bengal, India. Biochemical kits like AST, ALT, ALP and total protein were obtained from Span Diagnostics Ltd. Surat, India. Rat IL-12 ELISA kit (Elabscience Biotechnology Co. Ltd, WuHan, P.R.C.), Rat CRP ELISA kit (BD Biosciences, USA), Rat IFN-gamma ELISA kit (Biolegend, San Diego, Calif.) Rat MCP-1 ELISA kit (Elabscience Biotechnology Co. Ltd, WuHan, P.R.C.). All the chemicals used in the present study were of analytical grade and obtained from the following companies: Sigma (St. Louis, Mo., USA), Merck (Mumbai, India), S D fine chemicals (Mumbai, India) and Qualigen (Mumbai, India).
as §1

Interferon gamma (IFN-γ) [3] = assay: CNS/immunology study, serum IFN-gamma, alcohol 5 days; type: in vivo, Wistar albino rats; conditions: Pro: Protection (%), rats, alcohol 5 Day
Description: as §2, §1

[4] = system: serum alanine aminotransferase (ALT); assay: Hepatoprotection study, serum ALT, alcohol 5 days; type: in vivo, Wistar albino rats; conditions: Pro: Protection (%), rats, alcohol 4 gm/kg/day p.o.
[5] = system: interleukin-12 (IL-12) from brain homogenate; assay: CNS study, IL-12 from brain homogenate, alcohol 5 days; type: in vivo, Wistar albino rats; conditions: Pro: Protection (%), rats, alcohol 5 Day
[6] = system: serum C-reactive protein (CRP); assay: CNS/immunology study, serum CRP, alcohol 5 days; type: in vivo, Wistar albino rats; conditions: Pro: Protection (%), rats, alcohol 5 Day
Description: as §1

[7] = system: alkaline phosphatase (ALP); conditions: Pro: Protection (%); rats, alcohol 4 gm/kg/day p.o., 5 days, serum
Description: The levels of alanine aminotransferase (ALT), aspartate aminotransferase (AST) and alkaline phosphatise (ALP) in serum were measured using commercial spectrophotometric kit bought from Span Diagnostic Ltd. (www.span.in) according to the manufacturer's protocols.
12-16 hours after the last dose, the animals were sacrificed and blood samples were collected for estimation of biochemical parameters.
Male Wistar albino rats weighing 150-200 g were procured and randomly divided into groups consisting of twelve (12) animals in each group. Hepatoprotection was induced by alcohol in rats by oral administration of 30% alcohol (4 gm/kg/day, p.o.) for 5 days and this group served as the negative control and treated groups received different formulation.
All drug solutions were prepared in 40% aqueous alcohol, adjusting the pH in the range of 5.0-10.0 for evaluation of alcohol induced Hepatoprotection. This solution was further diluted with distilled water to obtain 30% aqueous alcoholic solution and administered orally by gavage to different rats group of step (a).

[8] = system: spatial learning and memory; assay: Morris water maze task (escape latency), alcohol 5 days; type: in vivo, Wistar albino rats; conditions: Pro: Protection (%), rats, alcohol 5 day
[9] = system: interleukin-12 (IL-12) from brain homogenate; assay: Hangover study, IL-12 from brain homogenate, alcohol 1 day; type: in vivo, Wistar albino rats; design: concentration or dose not given beside the values; conditions: 1 Day alcohol
[10] = system: Monocyte chemoattractant protein-1 (MCP-1); assay: Hangover study, serum MCP-1, alcohol 1 day; type: in vivo, Wistar albino rats; design: concentration or dose not given beside the values; conditions: 1 Day alcohol
Description: (§3) The lowest detectable limit of the kit is 0.1 ng/ml (Wang L, Li Y, Chen J, et al. “Ischemic Cerebral Tissue and MCP-1 Enhance Rat Bone Marrow Stromal Cell Migration in Interface Culture.” Experimental Hematology, 30, 7, 2002, 831-836).
as §1

[11] = system: aspartate aminotransferase (AST); assay: Hepatoprotection study, serum AST, alcohol 5 days; type: in vivo, Wistar albino rats; conditions: Pro: Protection (%), rats, alcohol 4 gm/kg/day p.o.
[12] = system: Monocyte chemoattractant protein-1 (MCP-1); assay: CNS/immunology study, serum MCP-1, alcohol 5 days; type: in vivo, Wistar albino rats; conditions: Pro: Protection (%), rats, alcohol 5 Day
Description: as §3, §1

interleukin-12 (IL-12) [13] = assay: CNS/immunology study, serum IL-12, alcohol 5 days; type: in vivo, Wistar albino rats; conditions: Pro: Protection (%), rats, alcohol 5 Day
Description: as §1

[14] = system: Monocyte chemoattractant protein-1 (MCP-1) from brain homogenate; assay: Hangover study, MCP-1 from brain homogenate, alcohol 1 day; type: in vivo, Wistar albino rats; conditions: 1 Day alcohol
[15] = system: acetylcholinesterase activity of brain homogenate; conditions: Hangover study, 1 Day alcohol; ingredient amounts in mass concentration (%)
Description: (§4) We have included this parameter to evaluate cognition and memory deficit in experimental animals.
(§5) Experimental Design • (b) Animal study model 1: Saline/Alcohol (4.0 gm/kg/day, p.o.)/Formulation with alcohol (4.0 gm/kg/day, p.o.) were administered (fed orally by orogastric cannula) for one day. 12-16 hours after the dose the animals were sacrificed and blood samples will be collected for estimation of biochemical parameters. Whole brain without cerebellum were dissected out, 10% homogenate was prepared with 0.1 M PB (pH 7.4). The homogenate solution was centrifuged at 10000 rpm for 20 minutes at 4° C. and the supernatant was used for estimation of acetylcholinesterase activity, which was estimated by Ellman's method (Ellman G L et al. A new and rapid colorimetric determination of acetylcholinesterase activity. Biochem Pharmacol, 1961, 7:88.) • (c) Animal study model 2: Saline/Alcohol (4.0 gm/kg/day, p.o.)/Formulation with alcohol (4.0 gm/kg/day, p.o.) were administered (fed orally by orogastric cannula) for 5 consecutive days. 12-16 hours after the last dose, the animals were sacrificed and blood samples were collected for estimation of biochemical parameters. Whole brain without cerebellum were dissected out, 10% homogenate was prepared with 0.1 M PB (pH 7.4). The homogenate solution was centrifuged at 10000 rpm for 20 minutes at 4° C. and the supernatant was used for estimation of acetylcholinesterase activity. […] The latency period of day 5 (before alcohol) was compared with post alcohol latency period (Vorhees C V and Williams M T. Morris water maze: procedures for assessing spatial and related forms of learning and memory, Nat Protoc, 2006, 1(2): 848-58.). % Protection Calculated in Above Experiments: % Protection=1−[(T−NS)/(AL−NS)]×100 T=Mean value of drug treated, NS=Mean value of normal control, AL=Mean value of alcohol alone.
(§6) Male Wistar albino rats weighing 150-200 g were procured and randomly divided into groups consisting of twelve (12) animals in each group. Alcohol induced hangover and CNS related biochemical changes and memory function in rats by oral administration of 30% alcohol (4 gm/kg/day, p.o.) for 1 and 5 days and this group served as the negative control and treated groups received different formulation.
(§7) All drug solutions were prepared in 40% aqueous alcohol, adjusting the pH in the range of 5.0-10.0 for evaluation of alcohol induced hangover and CNS related biochemical parameters.

[16] = system: Monocyte chemoattractant protein-1 (MCP-1) from brain homogenate; assay: CNS study, MCP-1 from brain homogenate, alcohol 5 days; type: in vivo, Wistar albino rats; conditions: Pro: Protection (%), rats, alcohol 5 Day
interleukin-12 (IL-12) [17] = assay: Hangover study, serum IL-12, alcohol 1 day; type: in vivo, Wistar albino rats; design: concentration or dose not given beside the values; conditions: 1 Day alcohol
Description: as §1

[18] = system: acetylcholinesterase activity of brain homogenate; conditions: Pro: Protection (%), rats, alcohol 5 Day
Description: as §4, §5, §6, §7

serum ALT, AST and ALP = assay: Hepatoprotection study overall (rise of serum ALT, AST and ALP), 5 alcohol doses; type: in vivo, Wistar albino rats; conditions: 5 alcohol doses of 4 gm/kg per oral

Row | Structure (SMILES) | CRP Pro (Protection) [1] | IFN-Gamma Pro (Protection) (Interferon gamma (IFN-γ) [2]) | IFN-Gamma Pro (Interferon gamma (IFN-γ) [3]) | ALT Pro [4] | Brain IL12 Pro [5] | CRP Pro [6] | ALP Pro [7] | WATER MAZE Pro [8] | Brain IL12 Pro (Protection) [9] | MCP-1 Pro (Protection) [10] | AST Pro [11] | MCP-1 Pro [12] | IL12 Pro (interleukin-12 (IL-12) [13]) | Brain MCP-1 Pro (Protection) [14] | ACHe Pro (Protection) [15] | Brain MCP-1 Pro [16] | IL12 Pro (Protection) (interleukin-12 (IL-12) [17]) | ACHe Pro [18] | other results
1 | CC1(C(=O)O)CCC2(C)CCC3(C)C(=CC(=O)C4C5(C)CCC(OC6OC(C(=O)O)C(O)C(O)C6OC6OC(C(=O)O)C(O)C(O)C6O)C(C)(C)C5CCC43C)C2C1 (stereo not drawn) [0.04 GA, 18β-GA] | 2.04% | 1.25% | 1.07% | 0.89% | 1.28% | 2.37% | 2.78% | 1.58% | 1.09% | 0.6% | 2.18% | 3.38% | 3.08% | 1.15% | 0.59% | 1.58% | 1.05% | 1.43% | –
2 | CC1(C(=O)O)CCC2(C)CCC3(C)C(=CC(=O)C4C5(C)CCC(OC6OC(C(=O)O)C(O)C(O)C6OC6OC(C(=O)O)C(O)C(O)C6O)C(C)(C)C5CCC43C)C2C1 (stereo not drawn) [0.04a GA, 18α-GA] | 0.1% | 0.1% | 0.1% | 1.26% | 0.1% | 0.1% | 1.08% | 2.1% | 0.1% | 0.1% | 2.24% | 0.1% | 0.1% | 0.1% | 0.1% | 0.1% | 0.1% | 0.1% | –
3 | C[C@H](N)C(=O)N[C@@H](CCC(N)=O)C(=O)O [0.5 DP, L-Ala-L-Gln] (H-Ala-Gln-OH) | 4.05% | 2.58% | 3.32% | 9.13% | 2.35% | 6.13% | 6.95% | 5.18% | 3.69% | 4.33% | 5.86% | 0.1% | 2.64% | 4.59% | 4.33% | 5.12% | 0.54% | 4.33% | –
4 | C[C@H](N)C(=O)N[C@@H](CCC(N)=O)C(=O)O [0.75 DP, L-Ala-L-Gln] (H-Ala-Gln-OH) | 15.93% | 6.38% | 5.62% | 5.28% | 7.01% | 3.78% | 12.24% | 13.15% | 7.14% | 5.25% | 9.14% | 0.75% | 13.88% | 10.14% | 8.94% | 9.63% | 14.84% | 6.73% | –
5 | CC1(C(=O)O)CCC2(C)CCC3(C)C(=CC(=O)C4C5(C)CCC(OC6OC(C(=O)O)C(O)C(O)C6OC6OC(C(=O)O)C(O)C(O)C6O)C(C)(C)C5CCC43C)C2C1 (stereo not drawn) [GA, 18-beta-Glycyrrhizin] | – | – | – | – | – | – | – | – | – | – | – | – | – | – | – | – | – | – | degree of protection (serum ALT, AST and ALP; GA as such at 0.04-0.3%): 5-25%
6 | C[C@H](N)C(=O)N[C@@H](CCC(N)=O)C(=O)O [L-alanine-L-glutamine (DP), L-alanyl-L-glutamine] (H-Ala-Gln-OH) | – | – | – | – | – | – | – | – | – | – | – | – | – | – | – | – | – | – | degree of protection (serum ALT, AST and ALP; dose level of 0.5 to 1.0%): mild effect; degree of protection (serum ALT, AST and ALP; higher doses (2.0 to 3.0%)): high degree of protection
7 | OC[C@@H](O)[C@@H](O)[C@H](O)[C@H](O)CO [Mannitol, D-Mannitol] | – | – | – | – | – | – | – | – | – | – | – | – | – | – | – | – | – | – | degree of protection (serum ALT, AST and ALP; individual ingredient at 0.5 to […]): 10-38%
